Experimental data from patent US9930893B2, “Inhibitors of DXP synthase and methods of use thereof” (The Johns Hopkins University, priority 2014, dated 2018).

Experiments:
[1] = target: T1, E. coli DXP synthase (DXPS) (Escherichia coli, UniProt P77488); assay type: biochemical; settings: 10-20 mM pyruvate, pH 8.0, 10% DMSO, 37° C., average ± SEM
T1 construct: made in house
T1 sequence (P77488 1-620): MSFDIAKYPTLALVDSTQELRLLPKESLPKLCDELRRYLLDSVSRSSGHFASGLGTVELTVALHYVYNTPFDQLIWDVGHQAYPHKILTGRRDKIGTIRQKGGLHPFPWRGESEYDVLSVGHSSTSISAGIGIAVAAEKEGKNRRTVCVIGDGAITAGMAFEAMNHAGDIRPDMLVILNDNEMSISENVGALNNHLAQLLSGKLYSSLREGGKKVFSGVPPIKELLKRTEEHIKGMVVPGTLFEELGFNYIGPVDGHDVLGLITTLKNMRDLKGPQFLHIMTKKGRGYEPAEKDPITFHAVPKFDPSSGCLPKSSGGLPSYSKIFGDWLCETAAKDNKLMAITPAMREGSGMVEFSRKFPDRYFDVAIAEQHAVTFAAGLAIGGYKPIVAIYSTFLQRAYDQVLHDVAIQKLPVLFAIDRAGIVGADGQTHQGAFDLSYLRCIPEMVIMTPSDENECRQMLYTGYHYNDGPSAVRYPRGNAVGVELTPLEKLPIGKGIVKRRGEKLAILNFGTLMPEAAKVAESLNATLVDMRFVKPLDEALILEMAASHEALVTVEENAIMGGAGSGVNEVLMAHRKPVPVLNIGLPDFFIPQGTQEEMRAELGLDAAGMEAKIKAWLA
Method: Reaction mixtures containing 100 mM HEPES, pH 8.0, 2 mM MgCl2, 5 mM NaCl, 1 mM ThDP, 1 mg/mL BSA, 10-20 mM pyruvate, 10% DMSO, 0.5 mM 5 mM nitroso substrate were pre-incubated at 37° C. for 5 min. […] Aliquots of enzymatic mixture were removed at various time intervals and quenched into an equal volume of cold methanol. Quenched mixtures were incubated on ice for 20 minutes. Precipitated proteins were removed by centrifugation, and the supernatant was analyzed by HPLC with UV detection using the following conditions: Flow rate=3 mL/min; Solvent A: 100 mM NH4OAc, pH 4.6; Solvent B: acetonitrile; Method: 0-100% B over 10 min. New products formed were extracted from the supernatant using ethyl acetate (3×). […] Products were subsequently characterized by mass spectrometry.
Reaction mixtures containing 100 mM HEPES, pH 8.0, 2 mM MgCl2, 5 mM NaCl, 1 mM ThDP, 1 mg/mL BSA, 10-20 mM pyruvate, 10% DMSO v/v, and 10-300 μM nitroso substrate were pre-incubated at 37° C. for 5 min. […] Substrate concentration as a function of time was determined from absorbance values using Beer's Law. Initial reaction rates were determined from the linear range of the reaction progress curve, usually within 1-3 min. Data analysis to determine kcat and Km for each alternative substrate was carried out using GraFit version 7 from Erithacus Software.

porcine PDH E1 subunit = assay type: biochemical
Method: Reaction mixtures containing 100 mM HEPES, pH 8.0, 2 mM MgCl2, 5 mM NaCl, 1 mM ThDP, 1 mg/mL BSA, 10-20 mM pyruvate, 10% DMSO v/v, and 10-300 μM nitroso substrate were pre-incubated at 37° C. for 5 min. Enzymatic reactions were initiated by addition of 0.5-2 μM DXP synthase (or 0.1 units/ml PDH) and monitored spectrophotometrically by measuring the rate of disappearance of the nitroso substrate at its corresponding λmax. Substrate concentration as a function of time was determined from absorbance values using Beer's Law. Initial reaction rates were determined from the linear range of the reaction progress curve, usually within 1-3 min. Data analysis to determine kcat and Km for each alternative substrate was carried out using GraFit version 7 from Erithacus Software.

DXP synthase = target: T2, DXP synthase (Escherichia coli, UniProt P77488); test: Inhibition of DXP formation by nitroso substrates (HPLC-based assay); assay type: biochemical, E. coli; settings: 30 μM D-GAP, 80 μM pyruvate, 37° C.; average ± SEM
T2 construct: made in house
T2 sequence (P77488 1-620): T1 sequence (P77488 1-620)
Method: Enzyme reactions were initiated by addition of 0.1 μM DXP synthase. Aliquots (150 μL) of the enzymatic mixture were removed between 0.5 and 3 minutes and quenched into ice-cold methanol (150 μL). Precipitated protein was removed by centrifugation, and the supernatant was diluted in an equal volume of water. The nitroso substrate was removed by extraction into acetonitrile (3×), using a previously described freeze-extraction technique. ^[32] […] The derivatization mixtures were analyzed by HPLC as previously described. ^[19] To determine initial reaction rates in the presence of varying inhibitor concentration, the D,L-GAP and DXP hydrazone HPLC peak areas were measured, and the product concentration was determined as a percent of total peak area and plotted against reaction time. Initial rates GraFit version 7 from Erithacus Software was utilized to generate IC50 curves.

E. coli DXP synthase = target: T3, E. coli DXP synthase (Escherichia coli, UniProt P77488); test: biochemical; settings: Table 4; read-out: In vitro DXP syn IC50
T3 construct: made in house
Method: FIG. 4A, FIG. 4B, and FIG. 4C are charts showing competitive inhibition of DXP synthase by pentylacetylphosphonate (PentAP; FIG. 4A), hexylacetylphosphonate (HexAP; FIG. 4B), and octylacetyl phosphonate (OctAP; FIG. 4C). Inhibition assays were performed as previously described^[18], [40]). […] Pyruvate concentration was varied from 12-240 μM and acetylphosphonate concentration was varied: 0 μM (∘), 10 μM (●), 25 μM (□) and 50 μM (▪). Experiments were performed in triplicate, and data were subjected to non-linear regression analysis for Ki determinations (GraphPad Prism). Representative Lineweaver-Burk plots (GraFit from Erithacus Software) are shown for PentAP (FIG. 4A), HexAP (FIG. 4B) and OctAP (FIG. 4C) to illustrate the competitive inhibition mode with respect to pyruvate.
Inhibition of DXP synthase was measured as previously described^[13], [18]. […] Acetylphosphonate concentration was varied from 0 to 250 μM. […] Experiments were performed in triplicate for BAP and in duplicate for iPrAP
In order to evaluate the inhibitory activity of BnAP against DXP synthase, a continuous spectrophotometric coupled assay was used to measure formation of DXP by monitoring IspC consumption of NADPH (340 nm). ^[2] DXP synthase reaction mixtures (previously described) including BnAP (15, 30, and 60 μM), IspC (1 μM) and NADPH (100 μM) were pre-incubated at 37° C. for 5 minutes. Initial rates were measured after the reaction was initiated by the addition of DXP synthase. Inhibition of the coupling enzyme (IspC) by BnAP was not observed up to 1.5 mM. Experiments were performed in triplicate. Double reciprocal analysis of data was carried out using GraFit version 7 from Erithacus Software.

yeast TK = target: T4, yeast TK (Saccharomyces cerevisiae, UniProt P23254); settings: ref [26]; cited from earlier work
T4 sequence (P23254 1-680): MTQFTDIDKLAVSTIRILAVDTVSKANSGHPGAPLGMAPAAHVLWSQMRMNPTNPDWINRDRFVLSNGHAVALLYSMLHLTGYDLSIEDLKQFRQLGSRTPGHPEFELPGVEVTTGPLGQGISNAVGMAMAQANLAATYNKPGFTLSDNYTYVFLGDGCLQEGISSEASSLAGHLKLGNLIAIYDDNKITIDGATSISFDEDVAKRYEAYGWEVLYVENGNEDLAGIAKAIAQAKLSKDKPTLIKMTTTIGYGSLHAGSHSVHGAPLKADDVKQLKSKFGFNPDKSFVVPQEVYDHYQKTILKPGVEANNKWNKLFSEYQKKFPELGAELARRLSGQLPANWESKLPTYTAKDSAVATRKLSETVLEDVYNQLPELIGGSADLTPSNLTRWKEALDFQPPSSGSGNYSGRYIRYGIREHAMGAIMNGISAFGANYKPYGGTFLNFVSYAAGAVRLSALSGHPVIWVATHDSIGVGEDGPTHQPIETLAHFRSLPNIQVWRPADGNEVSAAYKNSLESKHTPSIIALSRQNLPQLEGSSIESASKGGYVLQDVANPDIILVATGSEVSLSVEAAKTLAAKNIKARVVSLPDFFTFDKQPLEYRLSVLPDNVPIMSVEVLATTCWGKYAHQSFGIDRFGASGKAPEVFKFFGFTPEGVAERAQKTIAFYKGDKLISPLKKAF

E. coli BW25113 = test: Antimicrobial activity against E. coli BW25113 grown in CAMHB; assay type: cell-based; settings: 0.63 to 5 mM, 16 hours
Method: FIG. 9 is a chart showing antimicrobial activity of acetylphosphonates against E. coli BW25113 grown in CAMHB. Standardized cell cultures (approximately ˜10^5 CFU mL^−1) were exposed to increasing concentrations of acetylphosphonate. Fractional growth was determined at 16 hours as a percentage of the growth of no drug control. BAP (●), PentAP (▪) and HexAP (▴) were varied from 0.31 to 5 mM. OctAP (▾) was varied from 0.63 to 5 mM, and BnAP (♦) was varied from 0.16 mM to 5 mM. Each data point is the average of 3 independent experiments and the error bars are standard error.
(§1) Standardized innocula of E. coli BW25113 (approximately ˜10^5 CFU mL^−1) were treated with varying concentrations of either MAP (blue) or EAP (orange) from 0.63 to 5 mM for 16 hours, and fractional growth was determined by comparison to a no drug control. The ΔtolC variant of BW25113 was also treated with varying concentrations of MAP (black) or EAP (green) from 0.63 to 5 mM for 16 hour, and fractional growth was determined by comparison to no drug controls. Experiments were performed in duplicate, and error bars represent standard deviation.

[2] = test system: ΔtolC variant of E. coli BW25113; test: Antimicrobial activity against ΔtolC variant grown in CAMHB; assay type: cell-based; settings: 0.63 to 5 mM, 16 hour
Method: as §1

SMILES	kcat ([1]; acceptor substrate turnover)	Km ([1]; acceptor substrate)	Km (porcine PDH E1 subunit; 10-20 mM pyruvate, pH 8.0, 37° C., average ± SEM)	Km^PDH/Km^DXPS (porcine PDH E1 subunit; ratio porcine PDH E1 vs E. coli DXPS)	IC50 (DXP synthase)	IC50 (E. coli DXP synthase)	substrate usage by yeast TK (yeast TK)	activity against E. coli BW25113 (E. coli BW25113)	activity against ΔtolC variant [2]
COc1ccc(CCOP(=O)([O-])C(C)=O)cc1.[Li+] [Compound 4]	0.015 ± 0.0017 s⁻¹	54 ± 13 µM	408 ± 60 µM	7.5	844 ± 170 µM	194 µM	not a substrate		
CCOP(=O)(O)C(C)=O [EAP, ethyl acetylphosphonate]								inactive	inactive
COP(=O)(O)C(C)=O [MAP, methyl acetylphosphonate]								inactive	inactive
